Experimental findings from PMC7075651 (Journal of Medicinal Chemistry, 2018) are described below.

pEC50, pIC50: −log10 of the molar value. Read-outs that look alike come from different tables or passages of the source. Where a SMILES comes first, the peptide text is derived from it. [ ]: non-standard residue; d: D form. The star is where a group is joined. Palmitoyl = CCCCCCCCCCCCCCCC(=O)*; βAla = NCCC(=O)O

For data set [1], the target named is neuraminidase from influenza A/Puerto Rico/8/1934 (H1N1) (Influenza A virus, UniProt P03468). It counts as biochemical.
Chain of neuraminidase from influenza A/Puerto Rico/8/1934 (H1N1) (P03468 whole entry, looked up): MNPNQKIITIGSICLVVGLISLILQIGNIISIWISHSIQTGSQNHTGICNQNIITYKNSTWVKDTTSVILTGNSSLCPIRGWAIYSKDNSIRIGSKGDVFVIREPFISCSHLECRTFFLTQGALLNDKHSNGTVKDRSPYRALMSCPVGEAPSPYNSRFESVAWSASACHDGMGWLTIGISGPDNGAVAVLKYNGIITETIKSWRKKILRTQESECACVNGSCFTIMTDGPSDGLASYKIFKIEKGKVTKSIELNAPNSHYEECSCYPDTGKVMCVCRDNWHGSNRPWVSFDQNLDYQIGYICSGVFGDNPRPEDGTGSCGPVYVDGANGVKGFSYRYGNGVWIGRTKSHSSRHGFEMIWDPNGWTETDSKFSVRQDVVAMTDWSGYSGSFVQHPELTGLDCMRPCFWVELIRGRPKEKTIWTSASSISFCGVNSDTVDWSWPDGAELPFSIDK
For another data set, the target named is HA2 subunit (Influenza A virus, UniProt P03452). Also on record: species or system H1/PR8 virus. Conditions: pH 4.6.
Chain of HA2 subunit (P03452 18-343 limits assumed): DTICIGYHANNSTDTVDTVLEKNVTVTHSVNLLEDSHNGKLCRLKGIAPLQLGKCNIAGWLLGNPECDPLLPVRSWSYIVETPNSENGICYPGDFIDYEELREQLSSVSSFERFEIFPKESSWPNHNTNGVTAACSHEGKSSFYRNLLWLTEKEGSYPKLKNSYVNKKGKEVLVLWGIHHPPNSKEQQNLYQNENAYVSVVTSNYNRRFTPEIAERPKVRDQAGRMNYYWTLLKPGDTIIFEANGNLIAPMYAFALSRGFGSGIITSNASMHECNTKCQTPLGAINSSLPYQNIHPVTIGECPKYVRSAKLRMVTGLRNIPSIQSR
Chain of HA2 subunit (P03452 345-565 limits assumed): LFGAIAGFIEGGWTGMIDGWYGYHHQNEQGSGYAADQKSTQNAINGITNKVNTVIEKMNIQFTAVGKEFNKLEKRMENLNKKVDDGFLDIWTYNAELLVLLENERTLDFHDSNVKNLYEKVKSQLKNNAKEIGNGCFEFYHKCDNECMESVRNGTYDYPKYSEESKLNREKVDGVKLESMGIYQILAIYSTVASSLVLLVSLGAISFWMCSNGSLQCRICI
Another data set addresses N66 (Influenza A virus, UniProt P03437). It counts as binding, IAV H3 (X31). Conditions: pH 8.8.
For a further data set, the target named is IAV polymerase. Description: cells. It counts as cell-based, influenza A virus. The conditions noted are these: read-out: IC50, influenza replicon activity.
A short description of a further data set: in vivo. The conditions noted are these: male, Sprague-Dawley, rat, iv, 5 mg/kg.
In data set [2] the target is HA1 subunit sialic acid-binding site (Influenza A virus, UniProt P03452). The arrangement: species or system influenza A/Puerto Rico/8/34 virus.
Chain of HA1 subunit sialic acid-binding site (P03452 18-343 limits assumed): as the sequence (P03452 18-343 limits assumed) above
Chain of HA1 subunit sialic acid-binding site (P03452 345-565 limits assumed): as the sequence (P03452 345-565 limits assumed) above
Data set [3] concerns the target neuraminidase from influenza A/Hong Kong/8/68 (H3N2) (Influenza A virus, UniProt Q91MA2). It counts as biochemical.
A further data set relates to TZM-b1 cell. The conditions noted are these: human, TZM-b1 cells.
A further data set deals with MERS-CoV pseudovirus. Conditions: 12 h.
A further data set has as its system IAV. It counts as cell-based, influenza A virus.

Chain of neuraminidase from influenza A/Hong Kong/8/68 (H3N2) (Q91MA2 whole entry, looked up): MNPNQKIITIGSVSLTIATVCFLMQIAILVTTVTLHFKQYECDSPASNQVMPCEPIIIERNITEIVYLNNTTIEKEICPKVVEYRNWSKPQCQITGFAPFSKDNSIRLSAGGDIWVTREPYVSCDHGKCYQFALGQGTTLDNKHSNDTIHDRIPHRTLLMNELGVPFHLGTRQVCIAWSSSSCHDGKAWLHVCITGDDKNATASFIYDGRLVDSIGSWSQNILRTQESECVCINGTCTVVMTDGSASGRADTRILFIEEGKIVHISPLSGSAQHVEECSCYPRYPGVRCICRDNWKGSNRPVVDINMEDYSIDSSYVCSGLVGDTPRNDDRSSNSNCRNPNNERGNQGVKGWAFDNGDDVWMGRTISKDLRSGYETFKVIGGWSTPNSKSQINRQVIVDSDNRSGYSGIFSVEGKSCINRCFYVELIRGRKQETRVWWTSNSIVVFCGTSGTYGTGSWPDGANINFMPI
Chain of N66 (P03437 385-450 limits assumed): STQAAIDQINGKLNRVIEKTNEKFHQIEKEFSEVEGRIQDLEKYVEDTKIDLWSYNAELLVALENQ

The term pIC50 denotes the negative decadic logarithm of the IC50, by convention in mol/L. One may read the pEC50 as the negative decadic logarithm of the EC50, by convention in mol/L. A high value points to a low EC50. `CCCCCCCCCCCCCCCC(=O)NCCCC[C@H](NC(=O)CCNC(=O)[C@H](CCCCN)NC(=O)[C@H](CCCCN)NC(=O)[C@H](CCC(N)=O)NC(=O)[C@@H](NC(=O)[C@H](CCC(=O)O)NC(=O)[C@H](CCC(=O)O)NC(=O)[C@@H](NC(=O)[C@H](CCCCN)NC(=O)[C@H](CCCCN)NC(=O)[C@H](CCC(N)=O)NC(=O)[C@@H](NC(=O)[C@H](CCC(=O)O)NC(=O)[C@H](CCC(=O)O)NC(=O)[C@@H](NC(=O)[C@H](CCCCN)NC(=O)[C@H](CCCCN)NC(=O)[C@H](CCC(N)=O)NC(=O)[C@@H](NC(=O)[C@H](CCC(=O)O)NC(=O)[C@H](CCC(=O)O)NC(=O)[C@@H](NC(=O)[C@H](CCCCN)NC(=O)[C@H](CCCCN)NC(=O)[C@H](CCC(N)=O)NC(=O)[C@@H](NC(=O)[C@H](CCC(=O)O)NC(=O)[C@H](CCC(=O)O)NC(=O)[C@@H](NC(=O)[C@H](CCCCN)NC(=O)[C@H](CCCCN)NC(=O)[C@H](CCC(N)=O)NC(=O)[C@@H](NC(=O)[C@H](CCC(=O)O)NC(=O)[C@H](CCC(=O)O)NC(=O)[C@@H](NC(C)=O)[C@@H](C)CC)[C@@H](C)CC)[C@@H](C)CC)[C@@H](C)CC)[C@@H](C)CC)[C@@H](C)CC)[C@@H](C)CC)[C@@H](C)CC)[C@@H](C)CC)[C@@H](C)CC)C(N)=O` [IIQ] (Ac-IEEIQKKIEEIQKKIEEIQKKIEEIQKKIEEIQKK[βAla]K(Palmitoyl)-NH2): in [1], the “inhibition of neuraminidase of A/Puerto Rico/8/34 (H1N1), in words” value was “neither IIQ nor favipiravir was able to disturb cleavage of the substrate”. Also, at HA2 subunit, the “lysis of erythrocytes caused by HA2 under acidic condition” value is recorded as “decreased compared with the hemolytic effect of virus only”. The “N-PAGE of equimolar mixture with N66” value at N66 is given as “new bands at the upper positions in the gel”. Moreover, the pIC50 at IAV polymerase was below 4.00. The level at 24 h in “in vivo” was above 100 ng/mL. The “inhibition of influenza virus-induced aggregation of chicken erythrocytes” value in [2] was “no apparent inhibition”. Further, the “inhibition of neuraminidase of A/Hong Kong/8/68 (H3N2), in words” value in data set [3] is given as “neither IIQ nor favipiravir was able to disturb cleavage of the substrate”. Besides, the “CC50 on the TZM-b1 cell” value with TZM-b1 cell was above 100 µM. In the data set on MERS-CoV pseudovirus, this molecule showed a pEC50 of 6.89. In the data set with IAV, the “antiviral activity in the remaining three time intervals” value was “no antiviral activity” and the “reduction of viral load, interval 0–10 h” value was “approximately 60%”. In addition, the “CC50, cytotoxicity of compounds on MDCK cells” value in the data set on MDCK cells (dog, MDCK cells, 72 h) was above 100 µM.
Regarding `NC(=O)c1nc(F)cnc1O` [favipiravir, reference compound], in data set [1], the “inhibition of neuraminidase of A/Puerto Rico/8/34 (H1N1), in words” value is given as “neither IIQ nor favipiravir was able to disturb cleavage of the substrate”. For the same molecule, the “inhibition of neuraminidase of A/Hong Kong/8/68 (H3N2), in words” value in data set [3] is “neither IIQ nor favipiravir was able to disturb cleavage of the substrate”. Further, the “antiviral effect at the interval of 5–8 h” value with IAV was “continued to exert its full effect”.
In the case of `CCOC(=O)C1=C[C@@H](OC(CC)CC)[C@H](NC(C)=O)[C@@H](N)C1` [oseltamivir, reference compound], the pIC50 in the data set with IAV polymerase (Influenza A virus, HEK-293T, 30 h) was below 4.00. The “CC50, cytotoxicity of compounds on MDCK cells” value with MDCK cells was above 100 µM.
